Experimental data reported in ChEMBL document CHEMBL1201862, “PubChem BioAssay data set” (2004).
The source made the active and inactive calls.

Legend:
[1] = P. falciparum Dd2 growth inhibitors, dose response, SYBR Green, cherry-picked samples (AID 1159567); format: functional, cell-based
[2] = HepG2 cell cytotoxicity, dose response, cytotoxicity control, cherry-picked samples (AID 1159577); format: functional, cell-based
[3] = biological target: Induced myeloid leukemia cell differentiation protein Mcl-1 (Homo sapiens, UniProt Q07820); format: functional
Sequence of Induced myeloid leukemia cell differentiation protein Mcl-1 (Q07820 whole entry, the tested form may be a part): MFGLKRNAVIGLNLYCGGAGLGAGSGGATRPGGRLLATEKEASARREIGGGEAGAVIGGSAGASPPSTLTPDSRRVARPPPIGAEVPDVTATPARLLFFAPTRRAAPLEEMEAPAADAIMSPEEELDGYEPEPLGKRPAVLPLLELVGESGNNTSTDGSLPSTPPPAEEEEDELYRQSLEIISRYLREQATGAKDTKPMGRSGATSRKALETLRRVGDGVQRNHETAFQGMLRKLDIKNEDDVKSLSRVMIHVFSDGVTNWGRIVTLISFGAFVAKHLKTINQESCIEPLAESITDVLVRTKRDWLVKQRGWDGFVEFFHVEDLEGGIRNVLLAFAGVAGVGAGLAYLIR

[4] = biological target: T1, Carboxy-terminal domain RNA polymerase II polypeptide A small phosphatase 1 (Homo sapiens, UniProt Q9GZU7); test: inhibitors of CTDSP1, concentration-response testing, biochemical assay, absorbance-based, actives from ultra-high-throughput screening (AID 540297); format: functional
T1 sequence (Q9GZU7 whole entry): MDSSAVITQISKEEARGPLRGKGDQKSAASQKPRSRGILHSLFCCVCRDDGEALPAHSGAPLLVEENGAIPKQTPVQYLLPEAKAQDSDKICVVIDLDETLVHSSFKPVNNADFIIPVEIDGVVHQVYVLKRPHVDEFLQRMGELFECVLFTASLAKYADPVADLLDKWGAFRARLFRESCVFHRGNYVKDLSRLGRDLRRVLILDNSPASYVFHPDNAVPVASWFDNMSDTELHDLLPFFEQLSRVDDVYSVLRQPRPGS

Caspase-6 = biological target: T2, Caspase-6 (Homo sapiens, UniProt P55212); test: human caspase-6 inhibitors, dose response, biochemical, VEID-R110 fluorescence, cherry-pick (AID 720632)
T2 sequence (P55212 whole entry): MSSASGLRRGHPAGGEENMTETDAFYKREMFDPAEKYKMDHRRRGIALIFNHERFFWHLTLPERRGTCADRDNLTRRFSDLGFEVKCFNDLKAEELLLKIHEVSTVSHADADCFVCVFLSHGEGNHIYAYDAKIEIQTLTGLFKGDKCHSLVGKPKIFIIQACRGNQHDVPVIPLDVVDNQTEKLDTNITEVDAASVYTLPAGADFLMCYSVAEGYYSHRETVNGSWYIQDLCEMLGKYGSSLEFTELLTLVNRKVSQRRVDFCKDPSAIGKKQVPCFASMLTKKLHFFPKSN

Caspase-7 = Caspase-7 (Homo sapiens, UniProt P55210); test: human caspase-7 inhibitors, dose response, selectivity assay for caspase-6 inhibitor project, biochemical, DEVD-R110 fluorescence, cherry-pick (AID 743295)
Sequence of Caspase-7 (P55210 24-198 limits assumed): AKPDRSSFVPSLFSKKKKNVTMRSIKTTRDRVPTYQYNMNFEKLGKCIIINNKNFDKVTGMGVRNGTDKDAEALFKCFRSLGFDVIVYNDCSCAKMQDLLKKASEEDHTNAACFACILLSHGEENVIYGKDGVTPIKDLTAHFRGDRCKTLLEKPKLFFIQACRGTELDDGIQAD
Sequence of Caspase-7 (P55210 207-303 limits assumed): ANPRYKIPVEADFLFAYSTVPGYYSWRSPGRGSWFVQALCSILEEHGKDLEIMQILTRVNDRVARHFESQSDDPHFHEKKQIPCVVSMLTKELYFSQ

[5] = P. falciparum 3D7-ScDHODH growth inhibitors, dose response, SYBR Green, dry powder samples (AID 1159570); format: functional, cell-based;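 also: parasite growth measured after 72 hours of compound exposure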
[6] = P. falciparum Dd2 growth inhibitors, dose response, SYBR Green, dry powder samples, set 9 (AID 1159568); format: functional, cell-based
[7] = P. falciparum Dd2 growth inhibitors, dose response, SYBR Green, dry powder samples (AID 1159566); format: functional, cell-based;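 also: potency for growth inhibition with lower SYBR green DNA signal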
[8] = Plasmodium falciparum Dd2 Sybr green parasite growth Measured in Cell-Based and Microorganism Combination System Using Plate Reader - 2153-01_Inhibitor_Dose_DryPowder_Activity_Set3.; format: functional
[9] = P. falciparum ATP4 D1247Y mutant growth inhibitors, dose response, NITD609-resistant line, SYBR Green, dry powder (AID 1159571); format: functional, cell-based;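 also: parasites synchronized at ring stage by sorbitol before testing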
[10] = Luminescence Cell-Based Dose Response HTS to Identify Activators of Luciferase Translation or Activity in H4 […] Cells. [Related pubchem assays: 1829 (Project Summary), 1814 (Primary HTS)]; format: functional
H4 = test: Luminescence Cell-Based Dose Response HTS to Identify Activators of 5'UTR Stem-Loop Driven Prion Protein mRNA Translation in H4 Neuroglioblastoma Cells. [Related pubchem assays: 1829 (Project Summary), 1814 (Primary HTS)]; format: functional; settings: Homo sapiens
Protein skinhead-1 = biological target: T3, Protein skinhead-1 (Caenorhabditis elegans, UniProt P34707); format: functional
T3 sequence (P34707 whole entry): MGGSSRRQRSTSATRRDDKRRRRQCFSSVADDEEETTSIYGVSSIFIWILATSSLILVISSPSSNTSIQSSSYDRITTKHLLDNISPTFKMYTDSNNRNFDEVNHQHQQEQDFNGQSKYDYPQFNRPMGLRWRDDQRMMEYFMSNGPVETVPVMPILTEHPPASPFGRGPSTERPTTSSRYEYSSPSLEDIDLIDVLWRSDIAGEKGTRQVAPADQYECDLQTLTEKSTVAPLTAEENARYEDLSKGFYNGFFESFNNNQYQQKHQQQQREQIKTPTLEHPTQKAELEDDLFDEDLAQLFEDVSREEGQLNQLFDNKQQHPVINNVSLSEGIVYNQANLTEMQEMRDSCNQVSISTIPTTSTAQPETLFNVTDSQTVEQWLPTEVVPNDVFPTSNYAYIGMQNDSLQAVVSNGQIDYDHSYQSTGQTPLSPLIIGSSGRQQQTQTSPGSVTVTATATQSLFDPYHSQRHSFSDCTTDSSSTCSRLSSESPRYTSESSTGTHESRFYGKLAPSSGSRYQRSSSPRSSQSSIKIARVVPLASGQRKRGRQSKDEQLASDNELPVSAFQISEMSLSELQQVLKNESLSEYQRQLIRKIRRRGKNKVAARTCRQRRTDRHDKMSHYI

[11] = biological target: T4, Oxysterols receptor LXR-beta (Homo sapiens, UniProt P55055); format: functional, cell-based;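 also: Cell-based luminescence dose-response assay of agonist activity at LXR, run as a confirmatory counterscreen to a daf-12 agonist screen; HEK293 cells with Gal4-LXR fusion and GAL4-driven luciferase reporter; agonist potency from rising luciferase signal of a Gal4-LXR reporter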
T4 sequence (P55055 whole entry): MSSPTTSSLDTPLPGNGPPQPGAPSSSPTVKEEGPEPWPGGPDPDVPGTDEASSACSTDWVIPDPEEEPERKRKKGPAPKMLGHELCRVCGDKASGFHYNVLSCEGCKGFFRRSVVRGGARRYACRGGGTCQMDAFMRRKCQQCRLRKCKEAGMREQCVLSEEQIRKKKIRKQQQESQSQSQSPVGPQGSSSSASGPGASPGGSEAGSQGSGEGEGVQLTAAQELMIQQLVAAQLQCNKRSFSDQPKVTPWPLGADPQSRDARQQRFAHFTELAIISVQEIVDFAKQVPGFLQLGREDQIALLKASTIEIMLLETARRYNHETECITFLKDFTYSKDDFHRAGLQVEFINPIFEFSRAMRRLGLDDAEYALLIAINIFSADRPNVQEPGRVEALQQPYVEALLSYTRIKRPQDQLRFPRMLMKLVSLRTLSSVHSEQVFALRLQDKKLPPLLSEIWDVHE

[12] = cytotoxicity in HEK-293T cells, dose response, cytotoxicity control for TCR NF-kB inhibitor project, luminescence, T-cell screen hits (AID 489026); format: functional, cell-based;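 also: cells exposed to compound about 14 hours before the viability readout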
[13] = Concentration-dependent survival of SW480 colon cancer line, luminescence detection with CellTiter-Glo, half-maximal inhibitory concentration (AID 1117338); format: functional
[14] = RKO cell viability reduction, dose response, CellTiter-Glo luminescence (AID 1117322); format: functional
[15] = cytotoxicity toward HCT116 cells – cell-based, CellTiter-Glo luminescence, IC50, dose response (AID 1117332); format: functional; settings: HCT-116
[16] = SNU-C1 cell viability reduction, dose response, CellTiter-Glo luminescence (AID 1117323); format: functional, cell-based
[17] = cytotoxicity toward Colo320 cells – cell-based, CellTiter-Glo luminescence, IC50, dose response (AID 1117334); format: functional; settings: COLO 320
[18] = cytotoxicity toward HT-29 cells – cell-based, CellTiter-Glo luminescence, IC50, dose response (AID 1117330); format: functional
[19] = CellTiter-Glo luminescent dose response of DLD-1 viability loss (AID 1117352); format: functional
fMet-Leu-Phe receptor = fMet-Leu-Phe receptor (Homo sapiens, UniProt P21462); test: FPR ligands, dose response (AID 519); format: functional
Sequence of fMet-Leu-Phe receptor (P21462 whole entry): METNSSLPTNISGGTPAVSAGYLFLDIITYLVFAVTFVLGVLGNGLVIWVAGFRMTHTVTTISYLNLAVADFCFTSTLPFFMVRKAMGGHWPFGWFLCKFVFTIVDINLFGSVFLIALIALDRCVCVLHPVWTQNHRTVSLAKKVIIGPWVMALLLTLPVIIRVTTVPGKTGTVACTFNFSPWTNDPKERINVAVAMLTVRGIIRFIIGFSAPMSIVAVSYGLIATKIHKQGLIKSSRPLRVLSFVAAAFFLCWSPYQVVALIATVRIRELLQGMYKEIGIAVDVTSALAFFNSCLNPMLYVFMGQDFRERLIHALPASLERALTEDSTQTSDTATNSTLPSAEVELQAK

O=S(=O)(Cc1ccccc1)N1CCCCN2[C@@H](CO)[C@H](c3ccc(C#Cc4ccccc4)cc3)[C@@H]2C1
active: AC50 [1] 4.25 µM | AC50 [2] 8.93 µM

CCCSC1=N/C(=C\c2ccc([N+](=O)[O-])o2)C(=O)S1
active: IC50 [3] 3.88 µM | IC50 [4] 4.92 µM | AC50 (Caspase-6) 2.93 µM | AC50 (Caspase-7) 45.9 µM

CCCNC(=O)Nc1ccc2c(c1)OC[C@@H](C)N(Cc1ccccc1)C[C@@H](C)[C@H](OC)CN(C)C2=O
active: AC50 [5] 3.25 µM | AC50 [6] 0.307 µM | AC50 [1] 1.43 µM | AC50 [7] 0.154 µM | AC50 [8] 0.826 µM | AC50 [9] 0.828 µM

Cc1nc(NC(=O)c2cccs2)ccc1Br
inactive: EC50 [11] > 67.5 µM | EC50 (cells) > 67.5 µM
active: EC50 [10] 13.2 µM | EC50 (H4) 0.129 µM | IC50 (Protein skinhead-1) 24.4 µM

Nc1ncn([C@@H]2O[C@H](CO)[C@@H](O)[C@H]2O)c(=O)n1 [AZACITIDINE]
active: IC50 [15] 3.04 µM | IC50 [16] 1.8 µM | IC50 [19] 2.55 µM
inactive: IC50 [12] > 80 µM | IC50 [13] > 6.67 µM | IC50 [14] 7.4 µM | IC50 [17] 12.3 µM | IC50 [18] 12.5 µM

COc1cccc(C(=O)C2=C(O)C(=O)N(Cc3cccnc3)C2c2ccco2)c1 (stereo unspecified)
inactive: Ki (fMet-Leu-Phe receptor) > 66.7 µM
